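Values below derive from 48-hour exposures of cells grown in 96-well plates, with endpoints linearly interpolated between the two concentrations bracketing the appropriate inhibition level. GI50 marks 50% less growth.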 Calls of active or inactive are those of the source. Rule as the data show it: active = GI50 up to about 1.1 µM and inactive = higher.
Columns and labels:
Assay in all cases: inhibition of tumour cell growth, NCI panel, 48 h
[1] = system: SR
[2] = system: DU-145
[3] = system: COLO 205
[4] = system: NCI-H460
[5] = system: HCT-116
[6] = system: UO-31
[7] = system: SK-OV-3
[8] = system: HOP-92
[9] = system: UACC-62
[10] = system: PC-3
[11] = system: A498
[12] = system: MDA-MB-231
[13] = system: K562
[14] = system: MDA-MB-435
[15] = system: SF-539
[16] = system: UACC-257
[17] = system: MCF7
[18] = system: RXF 393
[19] = system: A549
[20] = system: SK-MEL-28
[21] = system: OVCAR-3
[22] = system: SF-295
[23] = system: SN12C
[24] = system: SK-MEL-5
[25] = system: KM12
[26] = system: IGROV-1
[27] = system: SF-268
[28] = system: TK-10
[29] = system: 786-0
[30] = system: SNB-75
[31] = system: HCT-15
[32] = system: NCI-H226
[33] = system: NCI-H522
[34] = system: U-251
[35] = system: Hs-578T
[36] = system: NCI/ADR-RES
[37] = system: OVCAR-5
[38] = system: HCC 2998
[39] = system: HL-60
[40] = system: SW-620
[41] = system: HOP-62
[42] = system: SK-MEL-2
[43] = system: CAKI-1
[44] = system: M14
[45] = system: SNB-19
[46] = system: OVCAR-8
[47] = system: HT-29
[48] = system: T47D
[49] = system: CCRF-CEM
[50] = system: OVCAR-4
[51] = system: Malme-3M
[52] = system: MDA-N
[53] = system: BT-549
[54] = system: MOLT-4
[55] = system: EKVX
[56] = system: NCI-H23
[57] = system: ACHN
[58] = system: RPMI-8226
[59] = system: LOX IMVI

## CCOC(=O)C(C)c1nc2cc(N3CCOCC3)c(F)cc2[nH]c1=O (centres undefined)
[1]
  GI50: > 100 µM (inactive)
[2]
  GI50: > 100 µM (inactive)
[3]
  GI50: > 100 µM (inactive)
[4]
  GI50: > 100 µM (inactive)
[5]
  GI50: > 100 µM (inactive)
[6]
  GI50: > 100 µM (inactive)
[7]
  GI50: > 100 µM (inactive)
[8]
  GI50: > 100 µM (inactive)
[9]
  GI50: > 100 µM (inactive)
[10]
  GI50: > 100 µM (inactive)
[11]
  GI50: > 100 µM (inactive)
[12]
  GI50: > 100 µM (inactive)
[13]
  GI50: > 100 µM (inactive)
[14]
  GI50: > 100 µM (inactive)
[15]
  GI50: > 100 µM (inactive)
[16]
  GI50: > 100 µM (inactive)
[17]
  GI50: > 100 µM (inactive)
[18]
  GI50: > 100 µM (inactive)
[19]
  GI50: > 100 µM (inactive)
[20]
  GI50: > 100 µM (inactive)
[21]
  GI50: > 100 µM (inactive)
[22]
  GI50: > 100 µM (inactive)
[23]
  GI50: > 100 µM (inactive)
[24]
  GI50: > 100 µM (inactive)
[25]
  GI50: > 100 µM (inactive)
[26]
  GI50: > 100 µM (inactive)
[27]
  GI50: > 100 µM (inactive)
[28]
  GI50: > 100 µM (inactive)
[29]
  GI50: > 100 µM (inactive)
[30]
  GI50: > 100 µM (inactive)
[31]
  GI50: > 100 µM
[32]
  GI50: > 100 µM (inactive)
[33]
  GI50: 53.1 µM (inactive)
[34]
  GI50: > 100 µM (inactive)
[35]
  GI50: > 100 µM (inactive)
[36]
  GI50: > 100 µM (inactive)
[37]
  GI50: > 100 µM (inactive)
[38]
  GI50: > 100 µM (inactive)
[39]
  GI50: > 100 µM (inactive)
[40]
  GI50: > 100 µM (inactive)
[41]
  GI50: > 100 µM (inactive)
[42]
  GI50: > 100 µM (inactive)
[43]
  GI50: > 100 µM (inactive)
[44]
  GI50: > 100 µM (inactive)
[45]
  GI50: > 100 µM (inactive)
[46]
  GI50: > 100 µM (inactive)
[47]
  GI50: > 100 µM (inactive)
[48]
  GI50: > 100 µM (inactive)
[49]
  GI50: > 100 µM (inactive)
[50]
  GI50: > 100 µM (inactive)
[51]
  GI50: > 100 µM (inactive)
[52]
  GI50: > 100 µM (inactive)
[53]
  GI50: > 100 µM (inactive)
[54]
  GI50: > 100 µM (inactive)
[55]
  GI50: > 100 µM (inactive)
[56]
  GI50: > 100 µM (inactive)
[57]
  GI50: > 100 µM (inactive)
[58]
  GI50: > 100 µM (inactive)

## c1ccc(CN2C3C4N(Cc5ccccc5)C2C2N(Cc5ccccc5)C(C(N2Cc2ccccc2)N4Cc2ccccc2)N3Cc2ccccc2)cc1
[1]
  GI50: > 100 µM (inactive)
[2]
  GI50: > 100 µM (inactive)
[3]
  GI50: > 100 µM (inactive)
[5]
  GI50: > 100 µM (inactive)
[7]
  GI50: > 100 µM (inactive)
[8]
  GI50: > 100 µM (inactive)
[9]
  GI50: > 100 µM (inactive)
[10]
  GI50: > 100 µM (inactive)
[11]
  GI50: > 100 µM (inactive)
[12]
  GI50: > 100 µM (inactive)
[13]
  GI50: > 100 µM (inactive)
[14]
  GI50: > 100 µM (inactive)
[15]
  GI50: > 100 µM (inactive)
[16]
  GI50: > 100 µM (inactive)
[17]
  GI50: > 100 µM (inactive)
[18]
  GI50: > 100 µM (inactive)
[19]
  GI50: > 100 µM (inactive)
[20]
  GI50: > 100 µM (inactive)
[21]
  GI50: > 100 µM (inactive)
[22]
  GI50: > 100 µM (inactive)
[23]
  GI50: > 100 µM (inactive)
[24]
  GI50: > 100 µM (inactive)
[25]
  GI50: > 100 µM (inactive)
[26]
  GI50: > 100 µM (inactive)
[27]
  GI50: > 100 µM (inactive)
[28]
  GI50: > 100 µM (inactive)
[29]
  GI50: > 100 µM (inactive)
[30]
  GI50: > 100 µM (inactive)
[31]
  GI50: > 100 µM
[32]
  GI50: > 100 µM (inactive)
[33]
  GI50: > 100 µM (inactive)
[34]
  GI50: > 100 µM (inactive)
[35]
  GI50: > 100 µM (inactive)
[36]
  GI50: > 100 µM (inactive)
[37]
  GI50: > 100 µM (inactive)
[38]
  GI50: > 100 µM (inactive)
[39]
  GI50: > 100 µM (inactive)
[40]
  GI50: > 100 µM (inactive)
[41]
  GI50: > 100 µM (inactive)
[42]
  GI50: > 100 µM (inactive)
[43]
  GI50: > 100 µM (inactive)
[44]
  GI50: > 100 µM (inactive)
[46]
  GI50: > 100 µM (inactive)
[47]
  GI50: > 100 µM (inactive)
[48]
  GI50: > 100 µM (inactive)
[49]
  GI50: 40.1 µM (inactive)
[52]
  GI50: > 100 µM (inactive)
[53]
  GI50: > 100 µM (inactive)
[59]
  GI50: > 100 µM (inactive)
[54]
  GI50: > 100 µM (inactive)
[55]
  GI50: > 100 µM (inactive)
[56]
  GI50: > 100 µM (inactive)
[57]
  GI50: > 100 µM (inactive)
[58]
  GI50: > 100 µM (inactive)

## C[C@@]12C[C@@H](c3ccccc3O1)N1CCSC1=N2
[1]
  GI50: > 100 µM (inactive)
[2]
  GI50: > 100 µM (inactive)
[3]
  GI50: > 100 µM (inactive)
[4]
  GI50: > 100 µM (inactive)
[5]
  GI50: > 100 µM (inactive)
[6]
  GI50: > 100 µM (inactive)
[7]
  GI50: > 100 µM (inactive)
[8]
  GI50: > 100 µM (inactive)
[9]
  GI50: > 100 µM (inactive)
[10]
  GI50: > 100 µM (inactive)
[11]
  GI50: > 100 µM (inactive)
[12]
  GI50: > 100 µM (inactive)
[13]
  GI50: > 100 µM (inactive)
[14]
  GI50: > 100 µM (inactive)
[15]
  GI50: > 100 µM (inactive)
[16]
  GI50: > 100 µM (inactive)
[17]
  GI50: > 100 µM (inactive)
[18]
  GI50: > 100 µM (inactive)
[20]
  GI50: > 100 µM (inactive)
[21]
  GI50: > 100 µM (inactive)
[22]
  GI50: > 100 µM (inactive)
[23]
  GI50: > 100 µM (inactive)
[24]
  GI50: > 100 µM (inactive)
[25]
  GI50: > 100 µM (inactive)
[26]
  GI50: > 100 µM (inactive)
[27]
  GI50: > 100 µM (inactive)
[28]
  GI50: > 100 µM (inactive)
[29]
  GI50: > 100 µM (inactive)
[30]
  GI50: > 100 µM (inactive)
[31]
  GI50: > 100 µM
[32]
  GI50: > 100 µM (inactive)
[33]
  GI50: > 100 µM (inactive)
[34]
  GI50: > 100 µM (inactive)
[35]
  GI50: > 100 µM (inactive)
[36]
  GI50: > 100 µM (inactive)
[37]
  GI50: > 100 µM (inactive)
[38]
  GI50: > 100 µM (inactive)
[39]
  GI50: > 100 µM (inactive)
[40]
  GI50: > 100 µM (inactive)
[41]
  GI50: > 100 µM (inactive)
[42]
  GI50: > 100 µM (inactive)
[43]
  GI50: > 100 µM (inactive)
[44]
  GI50: > 100 µM (inactive)
[45]
  GI50: > 100 µM (inactive)
[46]
  GI50: > 100 µM (inactive)
[47]
  GI50: > 100 µM (inactive)
[48]
  GI50: > 100 µM (inactive)
[50]
  GI50: > 100 µM (inactive)
[51]
  GI50: > 100 µM (inactive)
[52]
  GI50: > 100 µM (inactive)
[53]
  GI50: > 100 µM (inactive)
[59]
  GI50: > 100 µM (inactive)
[54]
  GI50: 75.5 µM (inactive)
[55]
  GI50: > 100 µM (inactive)
[56]
  GI50: > 100 µM (inactive)
[57]
  GI50: > 100 µM (inactive)
[58]
  GI50: > 100 µM (inactive)
